Source: US20110217262A1, “Treatment of Ocular Surface Disorders by Increasing Conjunctival Vascular Permeability” (priority 2010, published 2011)

Assays:
[1] = system: conjunctival blood vessels of rabbit eyes; test: Evans blue dye assay of conjunctival vascular permeability; assay type: in vivo, New Zealand White rabbits
Protocol: Method 1: Evans blue dye assay. […] Animals were anesthetized with 2-5% isofluorane gas administered via mask. The eyes were sterilized with 5% iodine (povidone iodine (HUMCO, Texarkana, Tex., USA) diluted to 5% in BSS (Alcon, Fort Worth, Tex., USA)) and 2-3 drops of 0.5% ophthalmic proparacaine (Alcon, Fort Worth, Tex., USA) was administered as a topical anesthetic. Right eyes (OD) received subconjunctival injections of 50 microliters of C-NOD in 100% DMSO. Left eyes (OS) received subconjunctival injections of 50 microliters of 100% DMSO. 40 mg/kg of Evans blue dye (Sigma-Aldrich, St. Louis, Mo., USA) was then injected into an ear vein. Eyes were photographed and tear samples were collected at 1, 2 and 3 days post injection. Tears were collected by insertion of 7 mm discs of Whatman 3M filter paper (Whatman, Inc., Piscataway, N.J., USA) under the lower eyelid for 2 minutes. The filter paper discs were stored in 200 microliters of a phosphate buffered saline solution […] at 5-10° C. Absorption at 620 nm was used to quantify Evans blue dye in tears.
An initial test of the ability of a nitric oxide donor B-NOD (Bing, R. J., Biochem. Biophys. Res. Comm. (2000) 275, 350) to increase conjunctival vascular permeability was performed. Fifty microliters of 100 mg/ml B-NOD in DMSO was injected OD, while DMSO vehicle was injected OS. Some eyes received no injection. Vascular permeability was assessed using the Evans blue dye assay. […] The difference between B-NOD and C-NOD may be due to the shorter half-life predicted for B-NOD.

[2] = system: rabbit eyes (tears); test: Total protein and serum albumin assay of tears; assay type: in vivo, New Zealand White rabbits
Protocol: Prior to subconjunctival injection, tear samples were collected from the eyes of the rabbits. Tears were collected by simultaneous insertion of two 7 mm discs of Whatman 3M filter paper (Whatman, Inc., Piscataway, N.J., USA) under the lower eyelid for 2 minutes. The filter paper discs were stored in 200 microliters of a phosphate buffered saline solution containing 0.05% Tween and 0.02% sodium azide at 5-10° C. Animals were anesthetized with 2-5% isofluorane gas administered via mask. The eyes were sterilized with 5% iodine (povidone iodine (HUMCO, Texarkana, Tex., USA) diluted to 5% in BSS (Alcon, Fort Worth, Tex., USA)) and 2-3 drops of 0.5% ophthalmic proparacaine (Alcon, Fort Worth, Texan, USA) was administered as a topical anesthetic. Right eyes (OD) received subconjunctival injections of 50 microliters of C-NOD in 100% DMSO. Left eyes (OS) received subconjunctival injections of 50 microliters of 100% DMSO. Tear samples were collected at 1 hour, then every day for up to 5 days.
Protein content of tears was assessed by two methods. First, total protein was measured using a Bio-Rad Protein Assay Kit (Bio-Rad Laboratories, Hercules, Calif., USA). Second, rabbit serum albumin was measured using an Assaypro Rabbit Albumin ELISA kit (Assaypro LLC, St. Charles, Mo., USA). Both kits were used according to the manufacturer's instructions. […]

[3] = system: rabbit eyes; settings: 1 day post-injection
Protocol: Initial tests on some other candidate stimulators of vascular permeability was performed.

[4] = system: epithelial corneal lesions in diabetic patients; settings: prospective, randomized, masked clinical trial; cited from earlier work

Molecule: O=C(Oc1cccc(CO[N+](=O)[O-])c1)c1ccccc1O [B-NOD]
- Evans blue dye in tears versus uninjected eyes ([1]; 50 microliters of 100 mg/ml in DMSO, by 24 hours): This difference disappeared
- Evans blue dye in tears versus uninjected eyes ([1]; 50 microliters of 100 mg/ml in DMSO, six hours post-injection): more Evans blue dye than did uninjected eyes
- Evans blue dye in tears versus vehicle injected eyes ([1]; 50 microliters of 100 mg/ml in DMSO, throughout the experiment): about the same amount of Evans blue dye as did vehicle injected eyes

Molecule: CCOC(=O)Oc1ccccc1C(=O)Oc1cccc(CO[N+](=O)[O-])c1 [C-NOD]
- total protein content of tears ([2]; 10 or 20 mg/cc, 1 day post injection, relative to uninjected eyes, N=4): significantly increased protein content of tears
- proportion of serum albumin in tears (albumin to total protein) ([2]; each concentration, relative to vehicle injection, 1 hour and 5 days post-injection): increased
- presence of subconjunctival dark Evans blue dye (photographs) ([1]; 66 mg/ml subconjunctival, 24, 48 and 72 hours post injection, versus vehicle injected eyes): evident
- Evans blue dye in tears versus DMSO vehicle injected eyes ([1]; absorption at 620 nm, in most cases, especially at 48 hours): more Evans blue dye present in the tears

Molecule: NCCc1c[nH]cn1 [Histamine]
- Injection [3]: Trace
- Mucous discharge [3]: Trace
- observable clinical response in the eyes ([3]; conditions not optimized): observable clinical response

Molecule: NCCc1c[nH]c2ccc(O)cc12 [Serotonin]
- Chemosis [3]: Trace
- Injection [3]: None
- Mucous discharge [3]: None

Molecule: hyaluronic acid
- epithelial healing time [4]: 7.1 days

B1: Angiopoietin-2: candidate stimulator of vascular permeability (protein, UniProt O15123 19-496, looked up)
Angiopoietin-2: YNNFRKSMDSIGKKQYQVQHGSCSYTFLLPEMDNCRSSSSPYVSNAVQRDAPLEYDDSVQRLQVLENIMENNTQWLMKLENYIQDNMKKEMVEIQQNAVQNQTAVMIEIGTNLLNQTAEQTRKLTDVEAQVLNQTTRLELQLLEHSLSTNKLEKQILDQTSEINKLQDKNSFLEKKVLAMEDKHIIQLQSIKEEKDQLQVLVSKQNSIIEELEKKIVTATVNNSVLQKQQHDLMETVNNLLTMMSTSNSAKDPTVAKEEQISFRDCAEVFKSGHTTNGIYTLTFPNSTEEIKAYCDMEAGGGGWTIIQRREDGSVDFQRTWKEYKVGFGNPSGEYWLGNEFVSQLTNQQRYVLKIHLKDWEGNEAYSLYEHFYLSSEELNYRIHLKGLTGTAGKISSISQPGNDFSTKDGDNDKCICKCSQMLTGGWWFDACGPSNLNGMYYPQRQNTNKFNGIKWYYWKGSGYSLKATTMMIRPADF
- Chemosis [3]: None
- Injection [3]: None
- Mucous discharge [3]: None
